Experimental data taken from article PMC6755732, “Structural, Biochemical, and In Vivo Characterization of MtrR-Mediated Resistance to Innate Antimicrobials by the Human Pathogen Neisseria gonorrhoeae” (Journal of Bacteriology, 2019).
Values joined by “and” are separate entries in the source; they are usually repeats but may differ in a detail not shown here. Equal entries are not always repeated. Where two headings read alike, the source gives them in different places. Marks after values point to notes of the source that are not given here.

Legend:
[1] = molecular target: T1, MtrR(W136L)-mtrCDE operator DNA (Neisseria gonorrhoeae, UniProt P39897, W136L); assay: Electrophoretic mobility shift assay, induction of MtrR(W136L); assay type: biochemical; settings: EMSA
T1 construct: hexahistidine tag with TEV protease site (N, cleaved yes); made in house; host or cells: Rosetta Gami B(DE3) pLysS cells (Novagen)
T1 sequence (P39897 whole entry W136L): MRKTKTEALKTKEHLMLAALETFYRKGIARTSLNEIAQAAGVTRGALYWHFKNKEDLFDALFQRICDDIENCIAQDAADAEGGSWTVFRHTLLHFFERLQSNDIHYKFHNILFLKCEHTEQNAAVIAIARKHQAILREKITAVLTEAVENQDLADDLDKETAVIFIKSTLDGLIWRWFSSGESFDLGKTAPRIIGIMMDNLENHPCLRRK
From the text: (§1) We hypothesized that the bile salts chenodeoxycholate and taurodeoxycholate occupied the binding pocket in which the CAPS electron density was observed. In our crystal structure, residues R176′ and W136 appear to be potentially important for H bonding and π stacking, respectively, with the ligand (see Fig. S4). Therefore, we generated and purified the single-site mutant MtrR proteins, MtrR(R176A), MtrR(R176E), and MtrR(W136L), to determine the importance of these residues for ligand binding (see the supplemental material) ([40]). First, we determined the capabilities of these single mutants to bind DNA with our FP-based assay. All the mutants were capable of binding the mtrCDE target sequence, with dissociation constants in the nanomolar range and all within 5-fold of the wild-type protein (see Fig. S7A). […] At higher concentrations (5 to 10 mM), taurodeoxycholate induced all three mutants. […]
(§2) Complementary oligodeoxynucleotides containing the MtrR binding site from the mtrC promoter (top strand, 5′-[…]-3′; an unusual pseudo-direct repeat is underlined) were annealed by heating an equimolar mixture of the top and bottom strands at 95°C for 5 min, followed by slow cooling to room temperature. […] The gels were stained with ethidium bromide and visualized and analyzed with an Alpha Innotech gel documentation instrument. The intensities of free DNA were measured with ImageJII ([61], [62]).

[2] = molecular target: T2, MtrR(R176E)-mtrCDE operator DNA (Neisseria gonorrhoeae, UniProt P39897, R176E); assay: Electrophoretic mobility shift assay, induction of MtrR(R176E); assay type: biochemical; settings: EMSA
T2 construct: hexahistidine tag with TEV protease site (N, cleaved yes); made in house; host or cells: Rosetta Gami B(DE3) pLysS cells (Novagen)
T2 sequence (P39897 whole entry R176E): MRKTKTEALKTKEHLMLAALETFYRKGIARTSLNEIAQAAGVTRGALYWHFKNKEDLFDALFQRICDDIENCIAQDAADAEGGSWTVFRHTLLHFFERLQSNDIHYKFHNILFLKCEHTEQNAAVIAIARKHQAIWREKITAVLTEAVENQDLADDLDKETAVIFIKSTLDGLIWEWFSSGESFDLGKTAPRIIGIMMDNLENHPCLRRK
From the text: as §1, §2

MtrR(W136L) = molecular target: T3, MtrR(W136L) (Neisseria gonorrhoeae, UniProt P39897, W136L); assay: Isothermal titration calorimetry, MtrR(W136L) with bile salts; assay type: binding; settings: ITC
T3 construct: hexahistidine tag with TEV protease site (N, cleaved yes); made in house; host or cells: Rosetta Gami B(DE3) pLysS cells (Novagen)
T3 sequence (P39897 whole entry W136L): as the sequence (P39897 whole entry W136L) above
Procedure: (§3) Purified MtrR was dialyzed extensively against buffer containing 20 mM Tris [pH 8.0], 200 mM NaCl, 10% glycerol, and 1 mM TCEP overnight at 4°C. The stock solutions and the necessary dilutions of the bile salts were prepared using this dialysis buffer. Titrations with 20 μM MtrR in the cell and 250 μM ligand in the syringe were performed using a VP-ITC microcalorimeter (Microcal Inc.). All measurements were conducted at 25°C with a stirring speed of 200 rpm. After subtraction of germane blank data, the titration data were analyzed using the program ORIGIN 5.0.
(§4) Protein purification for Isothermal Titration Calorimetry experiments and mutant […]
A codon optimized gene of MtrR was synthesized by GenScript and cloned into the pMCSG7 vector in- frame with the N-terminal Hexa- histidine tag and tobacco etch virus (TEV) protease cleavage site. This construct was used as the template for site- directed mutagenesis and to generate wild- type data in supplemental f igures 5-6 and Isothermal Titration Calorimetry data. This protein was overexpressed and purified as described in the “Materials and Methods” of the document, except the he xa -histidine tag MtrR was cleaved by TEV protease following NiNTA affinity chromatography. […]

MtrR = molecular target: T4, MtrR (Neisseria gonorrhoeae, UniProt P39897); assay: Isothermal titration calorimetry, wild-type MtrR with bile salts; assay type: binding; settings: ITC; for Stoichiometry N, WT MtrR: bile salt per MtrR
T4 construct: A codon optimized gene of MtrR was synthesized by GenScript and cloned into the; hexahistidine tag with TEV protease site (N, cleaved yes); made in house
T4 sequence (P39897 whole entry): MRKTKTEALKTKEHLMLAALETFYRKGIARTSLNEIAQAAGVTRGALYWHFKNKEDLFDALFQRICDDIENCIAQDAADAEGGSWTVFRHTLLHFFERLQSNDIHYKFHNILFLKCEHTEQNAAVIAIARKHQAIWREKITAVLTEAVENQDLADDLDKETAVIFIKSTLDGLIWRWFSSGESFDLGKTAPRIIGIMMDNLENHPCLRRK
Procedure: as §3, §4
(§5) A codon optimized gene of MtrR was synthesized by GenScript and cloned into the pMCSG7 vector in- frame with the N-terminal Hexa- histidine tag and tobacco etch virus (TEV) protease cleavage site. This construct was used as the template for site- directed mutagenesis and to generate wild- type data in supplemental f igures 5-6 and Isothermal Titration Calorimetry data. This protein was overexpressed and purified as described in the “Materials and Methods” of the document, except the he xa -histidine tag MtrR was cleaved by TEV protease following NiNTA affinity chromatography. Cleaved MtrR was purified from tagged MtrR and cleaved hexa- histidine tag by Ni- NTA aff inity chromatography and then further purified by size exclusion chromatography (S200).

[3] = test system: mtrCp-lacZ in FA19 (wild type); assay: β-Galactosidase assay of mtrCp-lacZ fusion, strain FA19; assay type: cell-based, Neisseria gonorrhoeae
From the text: (§6) To determine if sublethal concentrations of bile salts could relieve MtrR-mediated repression of mtrC (and, by inference, the mtrCDE operon), a translational fusion of the promoter region of mtrC to lacZ was used. This fusion system was made in the wild-type (FA19) background ([41]) and cloned into mtrR deletion mutant strain JF1. Using the mtrCp-lacZ fusion, the β-galactosidase activity of the strains grown in the presence or absence of the bile salt chenodeoxycholate, taurodeoxycholate, or glycocholate was measured. The β-galactosidase levels were determined from strains grown overnight on GC agar supplemented with the bile salt at concentrations 4-fold below their specific MICs to ensure that the concentration of each bile salt was in the same biological range (the bile salt concentrations are listed in Table 2).
N. gonorrhoeae strains FA19 (wild type) and JF1 (FA19 ΔmtrR) containing a translational mtrCp-lacZ fusion with the proAB locus were used to assess the ability of bile salts to induce mtrC expression; the construction of these strains has been described previously ([41]). The MIC of bile salts for each strain used in the β-galactosidase assay was determined using a 2-fold agar dilution method ([32]). Gonococci were grown overnight on GC agar (Difco Laboratories) supplemented with a bile salt (glycocholate, chenodeoxycholate, or taurodeoxycholate) at concentrations that were 4-fold below the MIC. After overnight growth at 37°C under 3.8% (vol/vol) CO2, the bacteria were scraped from the agar plate, resuspended in 1 ml phosphate-buffered saline (pH 7.4), and lysed by freeze-thawing three times, after which the cell debris was pelleted by centrifugation. The lysate was then used to determine β-galactosidase levels as described previously ([63]). All experiments were performed in triplicate with at least three biological replicates conducted on different days.

MtrR-mtrCDE promoter = molecular target: T5, MtrR-mtrCDE promoter (Neisseria gonorrhoeae, UniProt P39897); assay type: biochemical; settings: for Fold increase in Kd: versus no bile salt
T5 construct: nearly all 210 residues of each protomer observed, with the exception of residues 1 through 7; hexahistidine tag (thrombin-cleavable) (cleaved yes); made in house
T5 sequence (P39897 whole entry): as above
Procedure: Thus, to rule out any effect of alkaline pH on MtrR-DNA interactions, we buffered the CAPS used in the FP assay to pH 8.0 before testing its effect on DNA binding.
Fluorescence polarization-based DNA binding experiments were performed with a Panvera Beacon 2000 fluorescence polarization system (Invitrogen) utilizing 5′-fluorescein-labeled DNA. Polarization (P) of such 5′-labeled DNA increases as a function of protein binding, and equilibrium dissociation constants are determined by curve fitting the values of millipolarization (P × 10^−3) units against the protein concentration. To determine the effects of various ligands on MtrR-DNA binding, 1 nM 5′-fluoresceinated oligodeoxynucleotide duplexes containing the mtrC operator site in 1 ml binding buffer (20 mM Tris HCl [pH 8.0], 100 mM NaCl, and 2.5% glycerol) were titrated against increasing concentrations of purified MtrR in the presence or absence of the indicated concentrations of bile salt, and the resulting changes in polarization were measured. All the samples were excited at 490 nm, and their polarized emissions were measured at 530 nm. All the data were plotted using Kaleidagraph (Synergy Software) and Prism (GraphPad Software), and the resulting plots were fitted to the following equation: P = {(Pbound − Pfree)[protein]/(KD + [protein])} + Pfree, where P is the polarization measured at a given protein concentration, Pfree is the initial polarization of the free ligand, Pbound is the maximum polarization of specifically bound ligand, KD is the equilibrium dissociation constant, and [protein] is the protein concentration. Nonlinear least-squares analysis was used to determine Pbound, and Kd. The reported binding constants are the average values from at least three independent experimental measurements.

[4] = molecular target: T6, MtrR(R176A)-mtrCDE operator DNA (Neisseria gonorrhoeae, UniProt P39897, R176A); assay: Electrophoretic mobility shift assay, induction of MtrR(R176A); assay type: biochemical; settings: EMSA
T6 construct: hexahistidine tag with TEV protease site (N, cleaved yes); made in house; host or cells: Rosetta Gami B(DE3) pLysS cells (Novagen)
T6 sequence (P39897 whole entry R176A): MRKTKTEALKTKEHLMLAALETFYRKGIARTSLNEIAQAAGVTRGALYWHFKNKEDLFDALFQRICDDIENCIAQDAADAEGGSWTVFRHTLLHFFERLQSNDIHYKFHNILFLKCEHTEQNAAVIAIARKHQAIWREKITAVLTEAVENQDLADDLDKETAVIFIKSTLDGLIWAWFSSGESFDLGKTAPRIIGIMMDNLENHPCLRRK
From the text: as §1, §2

MtrR-DNA complex = molecular target: T7, MtrR-DNA complex (Neisseria gonorrhoeae, UniProt P39897); assay type: biochemical; settings: EMSA, wild-type MtrR, mtrC promoter oligoduplex
T7 construct: nearly all 210 residues of each protomer observed, with the exception of residues 1 through 7; hexahistidine tag (thrombin-cleavable) (cleaved yes); made in house
T7 sequence (P39897 whole entry, one chain of several): as the sequence (P39897 whole entry) above
Procedure: To test the hypothesis that these bile salts directly bind to MtrR and potentially derepress gene expression by interfering with the DNA binding activity of MtrR, MtrR-mtrC promoter interactions were tested in the presence and absence of different concentrations of several bile salts. […] It is important to note that this is a competition assay that, due to its experimental design, requires the use of 3 μM DNA and 4 to 10 μM MtrR dimer. Consequently, this means that ∼99.9% of all DNA is MtrR bound.
Complementary oligodeoxynucleotides containing the MtrR binding site from the mtrC promoter (top strand, 5′-[sequence]-3′; an unusual pseudo-direct repeat is underlined) were annealed by heating an equimolar mixture of the top and bottom strands at 95°C for 5 min, followed by slow cooling to room temperature. Binding reactions were carried out in 20-μl volumes of binding buffer (20 mM Tris [pH 8.0], 200 mM NaCl, 10% glycerol, and 1 mM TCEP) containing 1 μg oligoduplex, 1 μg poly(dI-dC), and 4 to 10 μg MtrR. After a 20-minute incubation at room temperature, the preformed complex was incubated with or without various concentrations of selected bile salts at room temperature for an additional 10 min. […] The gels were stained with ethidium bromide and visualized and analyzed with an Alpha Innotech gel documentation instrument. The intensities of free DNA were measured with ImageJII ([61], [62]).

WT MtrR = molecular target: T8, WT MtrR (Neisseria gonorrhoeae, UniProt P39897); assay: ITC ligand competition, WT MtrR presaturated with one bile salt and titrated with the second; assay type: binding; settings: WT MtrR (20 μM) preincubated with 20 μM taurodeoxycholate overnight at 4°C
T8 construct: A codon optimized gene of MtrR was synthesized by GenScript and cloned into the; hexahistidine tag with TEV protease site (N, cleaved yes); made in house
T8 sequence (P39897 whole entry): as above
Procedure: (A to D) Isothermal titration calorimetry thermograms and resulting binding isotherms for binding reactions between MtrR(R176E) and chenodeoxycholate (A) and taurodeoxycholate (B), as well as between MtrR(W136L) and chenodeoxycholate (C) and taurodeoxycholate (D). (E and F) Isothermal titration calorimetry thermograms and resulting binding isotherms for ligand competition assays. (E) WT MtrR (20 μM) was incubated with 20 μM taurodeoxycholate overnight at 4°C; chenodeoxycholate was titrated into MtrR-TDCA. (F) WT MtrR (20 μM) was incubated with 20 μM chenodeoxycholate overnight at 4°C; taurodeoxycholate was titrated into MtrR-CDCA.
This finding supports the idea that these ligands occupy different binding sites on MtrR and that the binding of taurodeoxycholate occludes, either directly or allosterically, the binding site of chenodeoxycholate. With our current data, we cannot determine the exact binding location of taurodeoxycholate. […]
Purified MtrR was dialyzed extensively against buffer containing 20 mM Tris [pH 8.0], 200 mM NaCl, 10% glycerol, and 1 mM TCEP overnight at 4°C. […] After subtraction of germane blank data, the titration data were analyzed using the program ORIGIN 5.0.

[5] = test system: mtrCp-lacZ in JF1 (FA19 ΔmtrR); assay type: cell-based, Neisseria gonorrhoeae
From the text: as §6
N. gonorrhoeae strains FA19 (wild type) and JF1 (FA19 ΔmtrR) containing a translational mtrCp-lacZ fusion with the proAB locus were used to assess the ability of bile salts to induce mtrC expression; the construction of these strains has been described previously ([41]). The MIC of bile salts for each strain used in the β-galactosidase assay was determined using a 2-fold agar dilution method ([32]). […]

MtrR(R176E) = molecular target: T9, MtrR(R176E) (Neisseria gonorrhoeae, UniProt P39897, R176E); assay: Isothermal titration calorimetry, MtrR(R176E) with bile salts; assay type: binding; settings: ITC
T9 construct: hexahistidine tag with TEV protease site (N, cleaved yes); made in house; host or cells: Rosetta Gami B(DE3) pLysS cells (Novagen)
T9 sequence (P39897 whole entry R176E): as the sequence (P39897 whole entry R176E) above
Procedure: as §3, §4, §5
Site-directed mutagenesis
To introduce the mutations W 136L, R176A, and R176E, we performed DpnI mediated site-directed mutagenesis. Complementary oligonucleotides containing the desired mutations were obtained from IDT. PCR reactions containing two complementary primers, template DNA, Pfu DNA polymerase buffer, dNTP, and Pfu DNA polymerase were incubated at 95 °C for 30 seconds followed by 18 cycles of 95 °C for […], 55 °C for one minute, and 68 °C for 11 minutes. After cooling the reactions to 4 °C, 10 units of Dpn1 (NEB) was added to each 50 µl reaction and incubated at 37 °C for 3 hours.
The resulting plasmids were used to transform DH5α (Thermo Fisher) cells for plasmid prep. After checking the sequences to ensure the mutations had been incorporated, these plasmids were overexpressed in Rosetta Gami B(DE3) pLysS cells (Novagen)

SMILES: C[C@H](CCC(=O)O)[C@H]1CC[C@H]2[C@@H]3[C@H](O)C[C@@H]4C[C@H](O)CC[C@]4(C)[C@H]3CC[C@]12C [Chenodeoxycholate, chenodeoxycholate]
- Concentration that induces (dissociates from mtrCDE operator DNA) MtrR(W136L) [1]: 5 to 10 mM
- Concentration that induces (dissociates from mtrCDE operator DNA) MtrR(R176E) [2]: did not induce either MtrR(R176A) or MtrR(R176E) to the same degree as the wild-type protein
- Kd of bile salt binding to MtrR(W136L) (MtrR(W136L)): No binding
- ΔH, WT MtrR (MtrR): -4.127 ± 0.739 kcal/mol
- ΔS, WT MtrR (MtrR): 10.85 ± 3.13 cal/mol/deg
- Kd (MtrR; 25°C, 20 μM MtrR in cell, 250 μM ligand in syringe, read-out: Kd of bile salt binding to WT MtrR): 4.4 µM and ~5 µM
- Stoichiometry N, WT MtrR (MtrR): 0.444 ± 0.097
- Stoichiometry N, WT MtrR (MtrR; listed as CDCA): ~ 0.5
- Stoichiometry N, WT MtrR (MtrR; listed as chenodeoxycholate): one molecule of bile salt per MtrR dimer
- MtrR-dependent derepression of the mtrC promoter ([3]; FA19 compared with ΔmtrR strain JF1, sublethal bile salt): clearly evident
- Fold increase of mtrCp-lacZ activity ([3]; strain FA19, grown on GC agar with bile salt 4-fold below MIC versus normal agar, mM concentration in parentheses in the cell): 5.09 (0.2)
- Fold increase in Kd (MtrR-mtrCDE promoter; 1 mM bile salt): 8.3
- Fold increase in Kd (MtrR-mtrCDE promoter; 1 mM bile salt, listed as chenodeoxycholate): 8- to 28
- Fold increase in Kd (MtrR-mtrCDE promoter; 5 mM bile salt): No binding
- Kd of MtrR-mtrCDE promoter binding in the presence of bile salt (MtrR-mtrCDE promoter; 5 mM bile salt, no bile salt 18 ± 3 nM): no DNA binding by MtrR was detected
- Concentration that induces (dissociates from mtrCDE operator DNA) MtrR(R176A) [4]: did not induce either MtrR(R176A) or MtrR(R176E) to the same degree as the wild-type protein
- Concentration that disrupts the preformed MtrR-DNA complex (MtrR-DNA complex): 2 to 3 mM
- Binding, ligand competition: chenodeoxycholate titrated into MtrR-TDCA (WT MtrR): minimal binding
- Fold increase of mtrCp-lacZ activity [5]: 1.37 (0.2)^b
- Stoichiometry N, MtrR(R176E) (MtrR(R176E)): 0.521 ± 0.038
- ΔH, MtrR(R176E) (MtrR(R176E)): -12.979 ± 8.228 kcal/mol
- ΔS, MtrR(R176E) (MtrR(R176E)): -23.00 ± 31.48 cal/mol/deg
- Kd (MtrR(R176E); read-out: Kd of bile salt binding to MtrR(R176E)): 97 ± 64 µM
